In ChEMBL document CHEMBL3045631, “Anticandidiasis agents from a Tanzanian plant, Combretum zeyheri” (2013):
≈ marks a conversion by molar mass, not a printed value.

What was measured:
Format in all cases: functional
Candida albicans [1] = assay: Antifungal activity against Candida albicans ATCC 90028 by two-fold serial microdilution method
Candida albicans [2] = assay: Antifungal activity against Candida albicans MTCC 1637 by two-fold serial microdilution method
Candida albicans [3] = assay: Antifungal activity against Candida albicans clinical isolate by two-fold serial microdilution method

| Compound | MIC (Candida albicans [1]) | MIC (Candida albicans [2]) | MIC (Candida albicans [3]) |
| --- | --- | --- | --- |
| CC1(C)CC[C@]2(C(=O)O)CC[C@]3(C)C(=CC[C@@H]4[C@@]5(C)C[C@@H](O)[C@H](O)C(C)(C)[C@@H]5[C@H](O)C[C@]43C)[C@@H]2C1 [6-beta-hydroxymaslinic acid] | > 250 µg/mL | > 250 µg/mL | > 250 µg/mL |
| C[C@@H]1[C@H](O)[C@@H](C)/C=C/C=C/C=C/C=C/C=C/C=C/C=C/[C@H](O[C@@H]2O[C@H](C)[C@@H](O)[C@H](N)[C@@H]2O)C[C@@H]2O[C@](O)(C[C@@H](O)C[C@@H](O)[C@H](O)CC[C@@H](O)C[C@@H](O)CC(=O)O[C@H]1C)C[C@H](O)[C@H]2C(=O)O [AMPHOTERICIN B] | 3.13 µg/mL (≈ 3.39 µM) | 3.13 µg/mL (≈ 3.39 µM) | 6.25 µg/mL (≈ 6.76 µM) |
| Clc1ccccc1C(c1ccccc1)(c1ccccc1)n1ccnc1 [CLOTRIMAZOLE] | 0.78 µg/mL (≈ 2.26 µM) | 0.39 µg/mL (≈ 1.13 µM) | 0.39 µg/mL (≈ 1.13 µM) |
| CC1(C)CC[C@]2(C(=O)O)CC[C@]3(C)C(=CC[C@@H]4[C@@]5(C)C[C@@H](O)[C@H](O)[C@@](C)(CO)[C@@H]5[C@H](O)C[C@]43C)[C@@H]2C1 [TERMINOLIC ACID] | 62.5 µg/mL (≈ 124 µM) | 125 µg/mL (≈ 248 µM) | 125 µg/mL (≈ 248 µM) |
